Measurements taken from ChEMBL document CHEMBL2321780, “Fluorinated quinazolinones as potential radiotracers for imaging kinesin spindle protein expression” (2013).
Activity calls are given as the source filed them. The rule behind the calls is not given here.

What was measured:
[1] = test system: SK-OV-3; experiment: Cell cycle arrest in human SKOV3 cells assessed as accumulation in S phase at 100 nM after 24 hrs by FACS analysis (reference value: 18.4%); type: functional
[2] = test system: SK-OV-3; experiment: Cell cycle arrest in human SKOV3 cells assessed as accumulation in G0/G1 phase at 100 nM after 24 hrs by FACS analysis (reference value: 51.1%); type: functional
[3] = test system: MCF7; experiment: Cell cycle arrest in human MCF7 cells assessed as accumulation in G2/M phase at 100 nM after 24 hrs by FACS analysis (reference value: 22.4%); type: functional
[4] = test system: MCF7; experiment: Cell cycle arrest in human MCF7 cells assessed as accumulation in G0/G1 phase at 100 nM after 24 hrs by FACS analysis (reference value: 48.2%); type: functional
[5] = test system: MCF7; experiment: Cell cycle arrest in human MCF7 cells assessed as accumulation in S phase at 100 nM after 24 hrs by FACS analysis (reference value: 19.6%); type: functional
[6] = test system: PC-3; experiment: Cell cycle arrest in human PC3 cells assessed as accumulation in G2/M phase at 100 nM after 24 hrs by FACS analysis (reference value: 26.3%); type: functional
[7] = test system: PC-3; experiment: Cell cycle arrest in human PC3 cells assessed as accumulation in S phase at 100 nM after 24 hrs by FACS analysis (reference value: 14.2%); type: functional
[8] = test system: PC-3; experiment: Cell cycle arrest in human PC3 cells assessed as accumulation in G0/G1 phase at 100 nM after 24 hrs by FACS analysis (reference value: 32.6%); type: functional
[9] = test system: DU-145; experiment: Cell cycle arrest in human DU145 cells assessed as accumulation in S phase at 100 nM after 24 hrs by FACS analysis (reference value: 4.5%); type: functional
[10] = test system: DU-145; experiment: Cell cycle arrest in human DU145 cells assessed as accumulation in G2/M phase at 100 nM after 24 hrs by FACS analysis (reference value: 31%); type: functional
[11] = test system: DU-145; experiment: Cell cycle arrest in human DU145 cells assessed as accumulation in G0/G1 phase at 100 nM after 24 hrs by FACS analysis (reference value: 53.2%); type: functional
[12] = target: T1, Kinesin-like protein KIFC3 (Homo sapiens) (UniProt Q9BVG8); experiment: Inhibition of KIFC3 (unknown origin)-mediated ATP hydrolysis assessed as residual activity at 1 uM after 10 to 20 mins by spectrophotometric analysis
T1 sequence (whole entry): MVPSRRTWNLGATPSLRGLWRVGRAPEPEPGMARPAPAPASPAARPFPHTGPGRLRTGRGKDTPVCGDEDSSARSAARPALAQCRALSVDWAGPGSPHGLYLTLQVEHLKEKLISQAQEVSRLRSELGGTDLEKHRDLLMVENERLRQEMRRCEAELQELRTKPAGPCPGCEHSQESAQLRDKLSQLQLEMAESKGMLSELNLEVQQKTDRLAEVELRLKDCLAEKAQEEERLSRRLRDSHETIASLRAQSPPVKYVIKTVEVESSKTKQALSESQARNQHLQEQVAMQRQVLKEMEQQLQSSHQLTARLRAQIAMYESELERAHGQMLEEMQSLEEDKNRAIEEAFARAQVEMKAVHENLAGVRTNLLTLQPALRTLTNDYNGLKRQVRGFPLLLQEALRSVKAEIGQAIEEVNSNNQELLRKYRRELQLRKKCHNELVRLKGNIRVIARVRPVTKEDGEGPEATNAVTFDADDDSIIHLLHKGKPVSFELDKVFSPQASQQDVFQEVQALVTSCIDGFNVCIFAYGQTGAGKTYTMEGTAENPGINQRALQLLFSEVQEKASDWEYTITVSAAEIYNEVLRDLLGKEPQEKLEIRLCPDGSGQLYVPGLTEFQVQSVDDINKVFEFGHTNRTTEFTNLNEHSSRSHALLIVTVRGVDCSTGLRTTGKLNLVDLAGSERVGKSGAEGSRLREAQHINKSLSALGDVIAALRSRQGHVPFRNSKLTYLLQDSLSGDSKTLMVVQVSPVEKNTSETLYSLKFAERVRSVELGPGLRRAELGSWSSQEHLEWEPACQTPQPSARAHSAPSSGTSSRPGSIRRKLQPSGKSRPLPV

[13] = test system: SK-OV-3; experiment: Cell cycle arrest in human SKOV3 cells assessed as accumulation in G2/M phase at 100 nM after 24 hrs by FACS analysis (reference value: 21.8%); type: functional
[14] = test system: SK-OV-3; experiment: Nonspecific cytotoxicity against human SKOV3 cells after 44 hrs by MTT assay; type: functional; conditions: SK-OV-3, 44 h
[15] = test system: SK-OV-3; experiment: Cell cycle arrest in human SKOV3 cells assessed as phospho-histone3 level at 100 nM after 24 hrs by immunostaining analysis; type: functional
[16] = test system: SK-OV-3; experiment: Cytotoxicity against human SKOV3 cells assessed as inhibition of KSP-mediated cell cycle progression after 44 hrs by MTT assay; type: functional; conditions: SK-OV-3, 44 h
[17] = test system: MCF7; experiment: Cytotoxicity against human MCF7 cells assessed as inhibition of KSP-mediated cell cycle progression after 44 hrs by MTT assay; type: functional; conditions: MCF7, 44 h
[18] = test system: PC-3; experiment: Cytotoxicity against human PC3 cells assessed as inhibition of KSP-mediated cell cycle progression after 44 hrs by MTT assay; type: functional; conditions: PC-3, 44 h
[19] = test system: DU-145; experiment: Cytotoxicity against human DU145 cells assessed as inhibition of KSP-mediated cell cycle progression after 44 hrs by MTT assay; type: functional; conditions: DU-145, 44 h
[20] = test system: SK-OV-3; experiment: Cytotoxicity against human SKOV3 cells assessed as inhibition of KSP-mediated cell cycle progression after 44 hrs by BrdU incorporation assay; type: functional; conditions: SK-OV-3, 44 h
[21] = test system: SK-OV-3; experiment: Nonspecific cytotoxicity against human SKOV3 cells after 44 hrs by BrdU incorporation assay; type: functional; conditions: SK-OV-3, 44 h
[22] = test system: SK-OV-3; experiment: Cell cycle arrest in human SKOV3 cells assessed as monoaster phenotype at 100 nM after 22 hrs by confocal microscopic analysis; type: functional, cell-based
[23] = test system: SK-OV-3; experiment: Cell cycle arrest in human SKOV3 cells assessed as absence of normal mitotic stages at 100 nM after 24 hrs by confocal microscopic analysis; type: functional, cell-based
[24] = test system: SK-OV-3; experiment: Cell cycle arrest in human SKOV3 cells assessed as monoaster phenotype at 100 nM after 24 hrs by confocal microscopic analysis; type: functional, cell-based

SMILES	Activity [12]	Activity [1]	Activity [2]	Activity [3]	Activity [4]	Activity [5]	Activity [6]	Activity [7]	Activity [8]	Activity [9]	Activity [10]	Activity [11]	Activity [13]	GI50 [14]	GI50 [17]	GI50 [18]	GI50 [19]	also measured
Cc1ccc(C(=O)N(CCCN)[C@H](c2nc3cc(Cl)ccc3c(=O)n2Cc2ccccc2)C(C)C)cc1	97.9%	16.6%	49.8%	21.2%	49.7%	17.6%	25%	30%	34.4%	10.3%	24.5%	53.7%	14.5%					
Cc1ccc(C(=O)N(CCCN)[C@@H](c2nc3cc(Cl)ccc3c(=O)n2Cc2ccccc2)C(C)C)cc1 [ISPINESIB]	97.3%	13.6%	3.8%	57.2%	22.1%	10.6%	60.9%	10.1%	13.8%	10.8%	49.8%	24.8%	51.3%					
CC(C)[C@@H](c1nc2cc(Cl)ccc2c(=O)n1Cc1ccccc1)N(CCCN)C(=O)c1ccccc1F	98.8%													850 nM				
CC(C)[C@H](c1nc2cc(Cl)ccc2c(=O)n1Cc1ccccc1)N(CCCN)C(=O)c1ccccc1F	99.4%													5350 nM	4.2 nM	7.8 nM	10.7 nM	GI50 [16]: 34.8 nM; Activity [22]: Active

Further lines, with some results ahead:

Activity [12]	SMILES	Activity [1]	Activity [2]	Activity [3]	Activity [4]	Activity [5]	Activity [6]	Activity [7]	Activity [8]	Activity [9]	Activity [10]	Activity [11]	Activity [13]	GI50 [14]	GI50 [17]	GI50 [18]	GI50 [19]	also measured
98.7%	CC(C)[C@@H](c1nc2cc(Cl)ccc2c(=O)n1Cc1ccccc1)N(CCCN)C(=O)c1ccc(F)cc1	16.2%	51.9%	22.8%	51.3%	15.2%	32.9%	24.2%	31%	9.5%	27.7%	52.9%	22.5%	500 nM				Activity [15]: 2.6%
98.9%	CC(C)[C@@H](c1nc2cc(Cl)ccc2c(=O)n1Cc1ccccc1)N(CCCN)C(=O)c1cccc(F)c1													1100 nM				
99.4%	CC(C)C(c1nc2cc(Cl)ccc2c(=O)n1Cc1ccccc1)N(CCCN)C(=O)c1cccc(F)c1 (racemic)													5700 nM	5.1 nM	17 nM	4 nM	GI50 [16]: 15.6 nM
101%	CC(C)[C@H](c1nc2cc(Cl)ccc2c(=O)n1Cc1ccccc1)N(CCCN)C(=O)c1ccc(F)cc1	13.8%	3.5%	53.2%	25.1%	12%	63.6%	11.1%	12%				58.5%	15400 nM	1 nM	0.5 nM	0.19 nM	GI50 [20]: 0.01 nM; GI50 [21]: 61000 nM; Activity [22]: Active; Activity [23]: Active; Activity [24]: Active; Activity [15]: 58.8%
